Test results: BigSolDB 2.1

[1] = in 1,2-diethoxyethane, 293.15 K

O=C(O)c1ccc(C(=O)O)cc1
solubility (mole fraction) [1]: 0.000214 | solubility (mole fraction) (in 1,2-diethoxyethane, 303.3 K): 0.000251 | solubility (mole fraction) (in 1,2-diethoxyethane, 313.25 K): 0.000294 | solubility (mole fraction) (in 1,2-diethoxyethane, 323.35 K): 0.000344 | solubility (mole fraction) (in 1,2-diethoxyethane, 333.65 K): 0.000403 | solubility (mole fraction) (in 1,2-diethoxyethane, 343.55 K): 0.000477 | solubility (mole fraction) (in THF, 293.15 K): 0.000882 | solubility (mole fraction) (in THF, 303.15 K): 0.000995 | solubility (mole fraction) (in THF, 313.45 K): 0.00115 | solubility (mole fraction) (in THF, 323.35 K): 0.0014 | solubility (mole fraction) (in THF, 329.35 K): 0.00164 | solubility (mole fraction) (in acetophenone, 303.15 K): 1.07e-05 | solubility (mole fraction) (in acetophenone, 313.15 K): 1.87e-05 | solubility (mole fraction) (in acetophenone, 323.15 K): 3.47e-05 | solubility (mole fraction) (in acetophenone, 332.85 K): 6.17e-05 | solubility (mole fraction) (in acetophenone, 343.3 K): 0.000116 | solubility (mole fraction) (in cyclohexanone, 293.15 K): 0.000167 | solubility (mole fraction) (in cyclohexanone, 303.15 K): 0.000183 | solubility (mole fraction) (in cyclohexanone, 313.15 K): 0.000231 | solubility (mole fraction) (in cyclohexanone, 323.3 K): 0.000302 | solubility (mole fraction) (in cyclohexanone, 333.4 K): 0.000385 | solubility (mole fraction) (in cyclohexanone, 343.85 K): 0.00053

O=C(O)c1cccc(C(=O)O)c1
solubility (mole fraction) (in 1,2-diethoxyethane, 293.3 K): 0.00265 | solubility (mole fraction) (in 1,2-diethoxyethane, 303.15 K): 0.00293 | solubility (mole fraction) (in 1,2-diethoxyethane, 313.15 K): 0.0033 | solubility (mole fraction) (in 1,2-diethoxyethane, 322.75 K): 0.00376 | solubility (mole fraction) (in 1,2-diethoxyethane, 332.65 K): 0.00433 | solubility (mole fraction) (in 1,2-diethoxyethane, 342.45 K): 0.00502 | solubility (mole fraction) (in THF, 293.35 K): 0.0141 | solubility (mole fraction) (in THF, 303.15 K): 0.0154 | solubility (mole fraction) (in THF, 313.45 K): 0.0169 | solubility (mole fraction) (in THF, 322.85 K): 0.0185 | solubility (mole fraction) (in THF, 328.75 K): 0.0196 | solubility (mole fraction) (in acetophenone, 303.15 K): 0.000725 | solubility (mole fraction) (in acetophenone, 313.15 K): 0.000858 | solubility (mole fraction) (in acetophenone, 323.05 K): 0.00105 | solubility (mole fraction) (in acetophenone, 332.95 K): 0.00135 | solubility (mole fraction) (in acetophenone, 342.95 K): 0.00175 | solubility (mole fraction) (in cyclohexanone, 293.35 K): 0.00239 | solubility (mole fraction) (in cyclohexanone, 303.15 K): 0.00302 | solubility (mole fraction) (in cyclohexanone, 313.15 K): 0.00385 | solubility (mole fraction) (in cyclohexanone, 322.75 K): 0.00469 | solubility (mole fraction) (in cyclohexanone, 332.75 K): 0.00571 | solubility (mole fraction) (in cyclohexanone, 342.85 K): 0.00697

O=C(O)c1ccccc1C(=O)O
solubility (mole fraction) [1]: 0.0154 | solubility (mole fraction) (in 1,2-diethoxyethane, 303.25 K): 0.0177 | solubility (mole fraction) (in 1,2-diethoxyethane, 313.2 K): 0.02 | solubility (mole fraction) (in 1,2-diethoxyethane, 323.05 K): 0.0228 | solubility (mole fraction) (in 1,2-diethoxyethane, 333.15 K): 0.0261 | solubility (mole fraction) (in 1,2-diethoxyethane, 343.05 K): 0.0302 | solubility (mole fraction) (in THF, 293.25 K): 0.0697 | solubility (mole fraction) (in THF, 303.15 K): 0.0754 | solubility (mole fraction) (in THF, 313.45 K): 0.0826 | solubility (mole fraction) (in THF, 323.15 K): 0.0899 | solubility (mole fraction) (in THF, 329.05 K): 0.0949 | solubility (mole fraction) (in acetophenone, 303.35 K): 0.0056 | solubility (mole fraction) (in acetophenone, 313.35 K): 0.00724 | solubility (mole fraction) (in acetophenone, 323.35 K): 0.00933 | solubility (mole fraction) (in acetophenone, 332.95 K): 0.0119 | solubility (mole fraction) (in acetophenone, 343.55 K): 0.0152 | solubility (mole fraction) (in cyclohexanone, 293.15 K): 0.0176 | solubility (mole fraction) (in cyclohexanone, 303.15 K): 0.0212 | solubility (mole fraction) (in cyclohexanone, 313.15 K): 0.0257 | solubility (mole fraction) (in cyclohexanone, 323.15 K): 0.031 | solubility (mole fraction) (in cyclohexanone, 333.15 K): 0.037 | solubility (mole fraction) (in cyclohexanone, 343.4 K): 0.0459
